Laboratory results as given in ChEMBL document CHEMBL4138123, “Design, synthesis and biological evaluation of novel pyrazolochalcones as potential modulators of PI3K/Akt/mTOR pathway and inducers of apoptosis in breast cancer cells” (Eur J Med Chem, 2017).

Legend:
Type in all cases: functional
CCRF-CEM = test: Cytotoxicity against human CCRF-CEM cells assessed as growth inhibition after 48 hrs by sulforhodamine B assay
A549 = test: Cytotoxicity against human A549/ATCC cells assessed as growth inhibition after 48 hrs by sulforhodamine B assay; settings: A549, 48 h
NCI-H226 = test: Cytotoxicity against human NCI-H226 cells assessed as growth inhibition after 48 hrs by sulforhodamine B assay; settings: NCI-H226, 48 h
NCI-H522 = test: Cytotoxicity against human NCI-H522 cells assessed as growth inhibition after 48 hrs by sulforhodamine B assay; settings: NCI-H522, 48 h
HCT-116 [1] = test: Cytotoxicity against human HCT116 cells assessed as growth inhibition after 48 hrs by sulforhodamine B assay; settings: HCT-116, 48 h
HCT-15 [2] = test: Cytotoxicity against human HCT15 cells assessed as growth inhibition after 48 hrs by sulforhodamine B assay; settings: HCT-15, 48 h
SW-620 = test: Cytotoxicity against human SW620 cells assessed as growth inhibition after 48 hrs by sulforhodamine B assay; settings: SW-620, 48 h
SF-268 = test: Cytotoxicity against human SF268 cells assessed as growth inhibition after 48 hrs by sulforhodamine B assay; settings: SF-268, 48 h; for CC50: read-out: LC50 (the source's name)
OVCAR-4 = test: Cytotoxicity against human OVCAR4 cells assessed as growth inhibition after 48 hrs by sulforhodamine B assay; settings: OVCAR-4, 48 h
TK-10 [3] = test: Cytotoxicity against human TK10 cells assessed as growth inhibition after 48 hrs by sulforhodamine B assay; settings: TK-10, 48 h
DU-145 [4] = test: Cytotoxicity against human DU145 cells assessed as growth inhibition after 48 hrs by sulforhodamine B assay; settings: DU-145, 48 h; for CC50: read-out: LC50 (the source's name)
HCT-15 [5] = test: Cytotoxicity against human HCT15 cells assessed as cell growth at 0.01 uM after 48 hrs by sulforhodamine B assay relative to control; settings: HCT-15, 48 h, read-out: Activity
NCI-H23 = test: Cytotoxicity against human NCI-H23 cells assessed as cell growth at 0.01 uM after 48 hrs by sulforhodamine B assay relative to control; settings: NCI-H23, 48 h, read-out: Activity
HCT-116 [6] = test: Cytotoxicity against human HCT116 cells assessed as cell growth at 0.1 uM after 48 hrs by sulforhodamine B assay relative to control; settings: HCT-116, 48 h, read-out: Activity
SNB-19 [7] = test: Cytotoxicity against human SNB19 cells assessed as cell growth at 0.1 uM after 48 hrs by sulforhodamine B assay relative to control; settings: SNB-19, 48 h, read-out: Activity
SK-OV-3 = test: Cytotoxicity against human SKOV3 cells assessed as cell growth at 0.1 uM after 48 hrs by sulforhodamine B assay relative to control; settings: SK-OV-3, 48 h, read-out: Activity
MDA-MB-231 = test: Cytotoxicity against human MDA-MB-231 cells assessed as cell growth at 0.1 uM after 48 hrs by sulforhodamine B assay relative to control; settings: MDA-MB-231, 48 h, read-out: Activity
Hs-578T [8] = test: Cytotoxicity against human Hs 578T cells assessed as cell growth at 0.1 uM after 48 hrs by sulforhodamine B assay relative to control; settings: read-out: Activity
HOP-62 = test: Cytotoxicity against human HOP62 cells assessed as cell growth at 1 uM after 48 hrs by sulforhodamine B assay relative to control; settings: HOP-62, 48 h, read-out: Activity
NCI-H460 = test: Cytotoxicity against human NCI-H460 cells assessed as cell growth at 1 uM after 48 hrs by sulforhodamine B assay relative to control; settings: NCI-H460, 48 h, read-out: Activity
UACC-62 = test: Cytotoxicity against human UACC62 cells assessed as cell growth at 1 uM after 48 hrs by sulforhodamine B assay relative to control; settings: UACC-62, 48 h, read-out: Activity
A498 = test: Cytotoxicity against human A498 cells assessed as cell growth at 1 uM after 48 hrs by sulforhodamine B assay relative to control; settings: A498, 48 h, read-out: Activity
TK-10 [9] = test: Cytotoxicity against human TK10 cells assessed as cell growth at 1 uM after 48 hrs by sulforhodamine B assay relative to control; settings: TK-10, 48 h, read-out: Activity
DU-145 [10] = test: Cytotoxicity against human DU145 cells assessed as cell growth at 1 uM after 48 hrs by sulforhodamine B assay relative to control; settings: DU-145, 48 h, read-out: Activity
MCF7 = test: Cytotoxicity against human MCF7 cells assessed as cell growth at 1 uM after 48 hrs by sulforhodamine B assay relative to control; settings: MCF7, 48 h, read-out: Activity
SR = test: Cytotoxicity against human SR cells assessed as cell growth at 10 uM after 48 hrs by sulforhodamine B assay relative to control; settings: read-out: Activity
KM12 = test: Cytotoxicity against human KM12 cells assessed as cell growth at 10 uM after 48 hrs by sulforhodamine B assay relative to control; settings: KM12, 48 h, read-out: Activity
SK-MEL-28 = test: Cytotoxicity against human SK-MEL-28 cells assessed as cell growth at 10 uM after 48 hrs by sulforhodamine B assay relative to control; settings: SK-MEL-28, 48 h, read-out: Activity
786-0 = test: Cytotoxicity against human 786-0 cells assessed as cell growth at 10 uM after 48 hrs by sulforhodamine B assay relative to control; settings: 786-0, 48 h, read-out: Activity
DU-145 [11] = test: Cytotoxicity against human DU145 cells assessed as cell growth at 10 uM after 48 hrs by sulforhodamine B assay relative to control; settings: DU-145, 48 h, read-out: Activity
SNB-19 [12] = test: Cytotoxicity against human SNB19 cells assessed as cell growth at 100 uM after 48 hrs by sulforhodamine B assay relative to control; settings: SNB-19, 48 h, read-out: Activity
Hs-578T [13] = test: Cytotoxicity against human Hs 578T cells assessed as cell growth at 100 uM after 48 hrs by sulforhodamine B assay relative to control; settings: read-out: Activity
MDA-MB-468 = test: Cytotoxicity against human MDA-MB-468 cells assessed as cell growth at 100 uM after 48 hrs by sulforhodamine B assay relative to control; settings: MDA-MB-468, 48 h, read-out: Activity
NCI/ADR-RES [14] = test: Cytotoxicity against human NCI/ADR-RES cells assessed as cell growth at 0.1 uM after 48 hrs by sulforhodamine B assay relative to control; settings: read-out: Activity
NCI/ADR-RES [15] = test: Cytotoxicity against human NCI/ADR-RES cells assessed as cell growth at 100 uM after 48 hrs by sulforhodamine B assay relative to control; settings: read-out: Activity

## COc1ccc(C(=O)/C=C/c2cc(-c3ccc4c(c3)OCO4)n[nH]2)cc1OC
CCRF-CEM
  LC50 (concentration killing 50% of cells): > 100 µM
  TGI: 9.58 µM
A549
  LC50 (concentration giving 50% net cell kill): > 100 µM
  TGI: 15.8 µM
NCI-H226
  LC50 (concentration killing 50% of cells): > 100 µM
  TGI: 11.2 µM
NCI-H522
  LC50: 12.7 µM
  TGI: 4.44 µM
HCT-116 [1]
  LC50: 56.2 µM
  TGI: 7.99 µM
HCT-15 [2]
  LC50: > 100 µM
  TGI: > 100 µM
SW-620
  LC50 (lethal concentration, 50% net cell kill): 15.9 µM
  TGI: 4.81 µM
SF-268
  TGI: 7.61 µM
  CC50: 40.5 µM
OVCAR-4
  LC50: > 100 µM
  TGI: 40.3 µM
TK-10 [3]
  GI50: 2.88 µM
  LC50: 70.4 µM
  TGI: 8.97 µM
DU-145 [4]
  GI50: 1.86 µM
  TGI: 4.27 µM
  CC50: 9.8 µM
HCT-15 [5]
  growth at 0.01 µM: 92%
NCI-H23
  growth at 0.01 µM: 90%
HCT-116 [6]
  growth at 0.1 µM: 95%
SNB-19 [7]
  growth at 0.1 µM: 89%
SK-OV-3
  growth at 0.1 µM: 99%
MDA-MB-231
  growth at 0.1 µM: 96%
Hs-578T [8]
  growth at 0.1 µM: 92%
HOP-62
  growth at 1 µM: 87%
NCI-H460
  growth at 1 µM: 87%
UACC-62
  growth at 1 µM: 98%
A498
  growth at 1 µM: 72%
TK-10 [9]
  growth at 1 µM: 97%
DU-145 [10]
  growth at 1 µM: 88%
MCF7
  growth at 1 µM: 88%
SR
  growth at 10 µM: -13%
KM12
  growth at 10 µM: -2%
SK-MEL-28
  growth at 10 µM: 36%
786-0
  growth at 10 µM: 5%
DU-145 [11]
  growth at 10 µM: -51%
SNB-19 [12]
  growth at 100 µM: -95%
Hs-578T [13]
  growth at 100 µM: -5%
MDA-MB-468
  growth at 100 µM: -85%

## COc1cc(-c2cc(/C=C/C(=O)c3ccc4c(c3)OCO4)[nH]n2)cc(OC)c1OC
CCRF-CEM
  LC50 (concentration killing 50% of cells): > 100 µM
  TGI: 5.95 µM
A549
  LC50 (concentration giving 50% net cell kill): > 100 µM
  TGI: > 100 µM
NCI-H226
  LC50 (concentration killing 50% of cells): > 100 µM
  TGI: > 100 µM
NCI-H522
  LC50: 5.37 µM
  TGI: 2.35 µM
HCT-15 [2]
  LC50: > 100 µM
  TGI: 7.19 µM
SW-620
  LC50 (lethal concentration, 50% net cell kill): > 100 µM
SF-268
  TGI: 14.5 µM
  CC50: > 100 µM
OVCAR-4
  LC50: > 100 µM
  TGI: > 100 µM
TK-10 [3]
  LC50: > 100 µM
  TGI: 5.73 µM
DU-145 [4]
  TGI: 9.56 µM
  CC50: > 100 µM
HCT-15 [5]
  growth at 0.01 µM: 95%
NCI-H23
  growth at 0.01 µM: 96%
HCT-116 [6]
  growth at 0.1 µM: 101%
SNB-19 [7]
  growth at 0.1 µM: 88%
NCI/ADR-RES [14]
  growth at 0.1 µM: 95%
SK-OV-3
  growth at 0.1 µM: 103%
MDA-MB-231
  growth at 0.1 µM: 103%
Hs-578T [8]
  growth at 0.1 µM: 98%
HOP-62
  growth at 1 µM: 95%
NCI-H460
  growth at 1 µM: 93%
UACC-62
  growth at 1 µM: 99%
A498
  growth at 1 µM: 83%
TK-10 [9]
  growth at 1 µM: 97%
DU-145 [10]
  growth at 1 µM: 90%
MCF7
  growth at 1 µM: 65%
SR
  growth at 10 µM: 6%
KM12
  growth at 10 µM: -69%
SK-MEL-28
  growth at 10 µM: -14%
786-0
  growth at 10 µM: -30%
DU-145 [11]
  growth at 10 µM: -2%
SNB-19 [12]
  growth at 100 µM: 6%
NCI/ADR-RES [15]
  growth at 100 µM: 1%
Hs-578T [13]
  growth at 100 µM: -2%
MDA-MB-468
  growth at 100 µM: -85%

## COc1ccc(C(=O)/C=C/c2cc(-c3ccc(OC)c(OC)c3)n[nH]2)cc1OC
CCRF-CEM
  GI50: 0.364 µM
  TGI: 5.52 µM
A549
  GI50: 2.25 µM
  TGI: 10.2 µM
NCI-H226
  GI50: 1.66 µM
  TGI: 4.23 µM
NCI-H522
  GI50: 1.69 µM
  TGI: 3.9 µM
HCT-116 [1]
  GI50: 0.369 µM
  TGI: 1.71 µM
HCT-15 [2]
  GI50: 1.09 µM
  TGI: 5.39 µM
SW-620
  GI50: 1.5 µM
  TGI: 5.41 µM
SF-268
  GI50: 2.09 µM
  TGI: 9.82 µM
  CC50: > 100 µM
OVCAR-4
  GI50: 1.92 µM
  TGI: 8.15 µM
TK-10 [3]
  GI50: 4.96 µM
  TGI: 47.7 µM
DU-145 [4]
  GI50: 1.64 µM
  TGI: 4.8 µM
  CC50: 17.4 µM
HCT-15 [5]
  growth at 0.01 µM: 96%
NCI-H23
  growth at 0.01 µM: 101%
HCT-116 [6]
  growth at 0.1 µM: 88%
SNB-19 [7]
  growth at 0.1 µM: 91%
NCI/ADR-RES [14]
  growth at 0.1 µM: 102%
SK-OV-3
  growth at 0.1 µM: 97%
MDA-MB-231
  growth at 0.1 µM: 99%
Hs-578T [8]
  growth at 0.1 µM: 91%
HOP-62
  growth at 1 µM: 73%
NCI-H460
  growth at 1 µM: 36%
UACC-62
  growth at 1 µM: 89%
A498
  growth at 1 µM: 63%
TK-10 [9]
  growth at 1 µM: 106%
DU-145 [10]
  growth at 1 µM: 73%
MCF7
  growth at 1 µM: 49%
KM12
  growth at 10 µM: -80%
SK-MEL-28
  growth at 10 µM: -38%
786-0
  growth at 10 µM: -32%
DU-145 [11]
  growth at 10 µM: -34%
SNB-19 [12]
  growth at 100 µM: -36%
NCI/ADR-RES [15]
  growth at 100 µM: -15%
Hs-578T [13]
  growth at 100 µM: 18%
MDA-MB-468
  growth at 100 µM: -64%
